What was measured:
[1] = tested on: M2-10B4 marrow stromal cells; assay: Matrix mineralization (45Ca incorporation assay, von Kossa staining) in M2-10B4 marrow stromal cells; type: cell-based, mouse; conditions: for induction of mineralization by individual oxysterols: 0.5 to less than 10 μM, as many as 14 days (data not shown)
Method: Cells: M2-10B4 mouse marrow stromal cell line obtained from American Type Culture Collection (ATCC, Rockville, Md., U.S.A.) was derived from bone marrow stromal cells of a (C57BL/6J x C3H/HeJ) Fl mouse, and support human and murine myelopoiesis in long-term cultures (as per ATCC) and have the ability to differentiate into osteoblastic and adipocytic cells. Unless specified, these cells were cultured in RPMI 1640 containing 10% heat-inactivated FBS, and supplemented with 1 mM sodium pyruvate, 100 U/ml penicillin, and 100 U/ml streptomycin (all from Irvine Scientific).
(§1) Von Kossa and oil red O staining—Matrix mineralization in cell monolayers was detected by silver nitrate staining as previously described. Oil red O staining for detection of adipocytes was performed as previously described.
^45Ca incorporation assay—Matrix mineralization in cell monolayers was quantified using the ^45Ca incorporation assay as previously described.
After 14 days, mineralization was identified by a von Kossa staining, which appears black. FIG. 3C is a depiction of von Kossa staining of M2 cells exposed to various conditions.
After 14 days, matrix mineralization in cultures was quantified using a ^45Ca incorporation assay.
Next, a combination of 22R and 20S oxysterols (RS, 2.5 μM each) were added in the presence or absence of SC as indicated. After 3 days, ALP activity was measured as described earlier. […] (B) M2 cells were treated as described in (A) and after 10 days matrix mineralization in cultures was quantified by a ^45Ca incorporation assay as described earlier. […] (C) M2 cells were pretreated with 20 μM SC for 4 hours, followed by the addition of RS in the presence or absence of SC as described above. After 8 days, total RNA was isolated and analyzed for osteocalcin (Osc) and […] expression by Northern blotting as previously described. Data from densitometric analysis of the Northern blot is shown in (D) as the average of duplicate samples, normalized to 18S rRNA. (E) M2 cells at confluence were pretreated for 2 hours with control vehicle (C), or PLA2 inhibitors ACA (25 μM) and AACOCF3 (AAC, 20 μM), in osteogenic medium. Next, a combination of 22R and 20S oxysterols (RS, 2.5 μM) was added in the presence or absence of the inhibitors as indicated. After 3 days, ALP activity was measured as previously described. […] (F) M2 cells were treated as described in (E). After 10 days, matrix mineralization in cultures was quantified using a ^45Ca incorporation assay as previously described. Results from a representative of three experiments are shown, reported as the mean of quadruplicate determinations ±SD, normalized to protein concentration (p<0.01 for RS vs. RS+ACA and RS+AAC).
(A) M2 cells at confluence were pretreated for four hours with RPMI containing 1% FBS, followed by treatment with control vehicle or 5 μM 20S oxysterol for 1, 4, or 8 hours. Next total cell extracts were prepared and analyzed for levels of native or phosphorylated ERK (pERK) using specific antibodies as previously described. Data from a representative of four experiments are shown, each treatment shown in duplicate samples. (B) M2 cells at confluence were pretreated for 2 hours with control vehicle (C) or 20 μM PD98059 (PD) in osteogenic medium as previously described. Next, a combination of 22R and 20S oxysterols (RS, 5 μM each) were added to appropriate wells as indicated. After 10 days of incubation, matrix mineralization was quantified by the ^45Ca incorporation assay as previously described. […] (C) M2 cells at confluence were pretreated for 2 hours with 20 µM PD98059 (PD) in RPMI containing 5% FBS. Next, the cells were treated with control vehicle (C), 10 μM troglitazone (Tro), or 10 μM of 20S or 22S oxysterols, alone or in combination as indicated. After 10 days, adipocytes were visualized by oil Red O staining and quantified by light microscopy as previously described. […]

M2 cells = assay: Troglitazone-induced adipogenesis in M2 cells (oil Red O staining, adipocyte count); type: cell-based, mouse; conditions: Tro 10 μM, oxysterol 10 μM, 10 days, alone or in combination
Method: as §1
Test 1: M2 cells at 90% confluence were treated with vehicle (C), PPAR-γ activator, troglitazone 10 μM (Tro), alone or in combination with 10 μM oxysterols 20S-, 22R-, or 25S-hydroxycholesterol. After 8 days, adipocytes were identified by oil Red 0 staining and quantified by counting under a phase contrast microscope. FIG. 6A is a bar graph depicting the effect of oxysterols on reducing adipogenesis of MSC.
Test 2: (A) M2 cells at confluence were treated in RPMI containing 10% FBS with control vehicle or 10 μM troglitazone (Tro) in the absence or presence of 10 μM 20S or 22S-hydroxycholesterol. After 10 days, adipocytes were visualized by oil Red O staining and quantified by light microscopy, shown in (B). […] (C) M2 cells were treated at confluence with 10 μM Tro, alone or in combination with 10 μM 20S oxysterol. After 10 days, total RNA was isolated and analyzed for lipoprotein lipase (LPL), adipocyte P2 gene (aP2) or 18S rRNA expression by Northern blotting as described (Ref). Data from densitometric analysis of the Northern blot is shown in (D) as the average of duplicate samples, normalized to 18S rRNA.

SMILES | induction of mineralization by individual oxysterols [1] | effect on troglitazone-induced adipogenesis (M2 cells) | mineralization ([1]; doses of 5-15 μM)
CC(C)CC[C@@H](O)[C@@H](C)[C@H]1CC[C@H]2[C@@H]3CC=C4C[C@@H](O)CC[C@]4(C)[C@H]3CC[C@]12C [22R-hydroxycholesterol] | unable to induce | inhibited adipogenesis | 
CC(C)CCC[C@](C)(O)[C@H]1CC[C@H]2[C@@H]3CC=C4C[C@@H](O)CC[C@]4(C)[C@H]3CC[C@@]21C [20S-hydroxycholesterol] | unable to induce | inhibited adipogenesis | induction
CC(C)CC[C@H](O)[C@@H](C)[C@H]1CC[C@H]2[C@@H]3CC=C4C[C@@H](O)CC[C@]4(C)[C@H]3CC[C@]12C [22S-hydroxycholesterol] | unable to induce | inhibited adipogenesis | 

— US20090220562A1, “Osteogenic and anti-adipogenic oxysterols” (priority 2005, published 2009)
